Patent US9302991B2, “Arylamide derivatives as TTX-S blockers” (RaQualia Pharma Inc., priority 2010, dated 2016)

Each molecule was assayed against T1, human Nav1.3 channels (Homo sapiens, UniProt Q9NY46) (assay: FRET assay, human Nav1.3 (EFS on FDSS)). Details: HEK293 cells expressing human Nav1.3, read-out: IC50 against Nav1.3.
T1 construct: expressed in transfected cells; host or cells: HEK293
Type: cell-based
Protocol: The inhibitory activities of compounds against voltage gated sodium channels are determined by methodology well known in the art.
The ability of the aryl substituted carboxamide derivatives of the formula (I) to inhibit the NaV1.3, Nav1.7 and Nav1.5 channels is measured by Fluorescence Resonance Energy Transfer (FRET) assay and electrophysiology assay described below.
This screen is used to determine the effects of compounds on human Nav1.3, human Nav1.7, and human Nav1.5 channels, utilising electrical field stimulation (EFS) system in 96-well plate format on FDSS (Hamamatsu Photonics) platform. The change of membrane potential is monitored with FRET dye pair, oxonol (DiSBAC2(3)) and coumarin (CC2-DMPE).
Each HEK293 cells expressing human Nav1.3 channels and HEK293 cells expressing human Nav1.5 channels are grown in T225 flasks, in a 5% CO2 humidified incubator to about 80% confluence. Media composition consists of Dulbecco's Modified Eagle Medium (high glucose), 10% FCS, 100 units/mL Penicillin, 100 microgram/mL Streptomycin and 500 microgram/mL Geneticine.
Protocol: • Seed each cell lines (1×10^5 cells/well) into poly-D-lysine coated 96-well plates prior to experimentation. • Incubate at 37° C. in 5% CO2 for 24 hours. • Wash each well with assay buffer (140 mM NaCl, 4.5 mM KCl, 10 mM D-Glucose, 2 mM CaCl2, 1 mM MgCl2, 10 mM HEPES, pH 7.4 adjusted with NaOH) twice. • Add 1st loading solution containing 10 microM CC2-DMPE and 0.06% Pluronic F-127 in assay buffer. • Incubate the plate at room temperature in dark for 1 hour. • Remove 1st loading solution and added 2nd loading solution containing 15 microM DiSBAC2(3), 0.555 mM VABSC-1 and 0.004% Pluronic F-127 in assay buffer. • Place the plate under the dark at room temperature for 25 minutes. • Add compound solutions into the assay plate. • Set the assay plate in FDSS and placed an EFS device on the plate. • Measure EFS-induced fluorescent response by FDSS.
The data are analyzed and reported as normalized ratios of intensities measured at […]. The process of calculating these ratios is performed as follows:
This analysis is performed using a computerized specific program designed for FDSS generated data. Fluorescence ratio values are plotted using XLfit to determine an IC50 value for each compound.

T1 sequence (Q9NY46 whole entry): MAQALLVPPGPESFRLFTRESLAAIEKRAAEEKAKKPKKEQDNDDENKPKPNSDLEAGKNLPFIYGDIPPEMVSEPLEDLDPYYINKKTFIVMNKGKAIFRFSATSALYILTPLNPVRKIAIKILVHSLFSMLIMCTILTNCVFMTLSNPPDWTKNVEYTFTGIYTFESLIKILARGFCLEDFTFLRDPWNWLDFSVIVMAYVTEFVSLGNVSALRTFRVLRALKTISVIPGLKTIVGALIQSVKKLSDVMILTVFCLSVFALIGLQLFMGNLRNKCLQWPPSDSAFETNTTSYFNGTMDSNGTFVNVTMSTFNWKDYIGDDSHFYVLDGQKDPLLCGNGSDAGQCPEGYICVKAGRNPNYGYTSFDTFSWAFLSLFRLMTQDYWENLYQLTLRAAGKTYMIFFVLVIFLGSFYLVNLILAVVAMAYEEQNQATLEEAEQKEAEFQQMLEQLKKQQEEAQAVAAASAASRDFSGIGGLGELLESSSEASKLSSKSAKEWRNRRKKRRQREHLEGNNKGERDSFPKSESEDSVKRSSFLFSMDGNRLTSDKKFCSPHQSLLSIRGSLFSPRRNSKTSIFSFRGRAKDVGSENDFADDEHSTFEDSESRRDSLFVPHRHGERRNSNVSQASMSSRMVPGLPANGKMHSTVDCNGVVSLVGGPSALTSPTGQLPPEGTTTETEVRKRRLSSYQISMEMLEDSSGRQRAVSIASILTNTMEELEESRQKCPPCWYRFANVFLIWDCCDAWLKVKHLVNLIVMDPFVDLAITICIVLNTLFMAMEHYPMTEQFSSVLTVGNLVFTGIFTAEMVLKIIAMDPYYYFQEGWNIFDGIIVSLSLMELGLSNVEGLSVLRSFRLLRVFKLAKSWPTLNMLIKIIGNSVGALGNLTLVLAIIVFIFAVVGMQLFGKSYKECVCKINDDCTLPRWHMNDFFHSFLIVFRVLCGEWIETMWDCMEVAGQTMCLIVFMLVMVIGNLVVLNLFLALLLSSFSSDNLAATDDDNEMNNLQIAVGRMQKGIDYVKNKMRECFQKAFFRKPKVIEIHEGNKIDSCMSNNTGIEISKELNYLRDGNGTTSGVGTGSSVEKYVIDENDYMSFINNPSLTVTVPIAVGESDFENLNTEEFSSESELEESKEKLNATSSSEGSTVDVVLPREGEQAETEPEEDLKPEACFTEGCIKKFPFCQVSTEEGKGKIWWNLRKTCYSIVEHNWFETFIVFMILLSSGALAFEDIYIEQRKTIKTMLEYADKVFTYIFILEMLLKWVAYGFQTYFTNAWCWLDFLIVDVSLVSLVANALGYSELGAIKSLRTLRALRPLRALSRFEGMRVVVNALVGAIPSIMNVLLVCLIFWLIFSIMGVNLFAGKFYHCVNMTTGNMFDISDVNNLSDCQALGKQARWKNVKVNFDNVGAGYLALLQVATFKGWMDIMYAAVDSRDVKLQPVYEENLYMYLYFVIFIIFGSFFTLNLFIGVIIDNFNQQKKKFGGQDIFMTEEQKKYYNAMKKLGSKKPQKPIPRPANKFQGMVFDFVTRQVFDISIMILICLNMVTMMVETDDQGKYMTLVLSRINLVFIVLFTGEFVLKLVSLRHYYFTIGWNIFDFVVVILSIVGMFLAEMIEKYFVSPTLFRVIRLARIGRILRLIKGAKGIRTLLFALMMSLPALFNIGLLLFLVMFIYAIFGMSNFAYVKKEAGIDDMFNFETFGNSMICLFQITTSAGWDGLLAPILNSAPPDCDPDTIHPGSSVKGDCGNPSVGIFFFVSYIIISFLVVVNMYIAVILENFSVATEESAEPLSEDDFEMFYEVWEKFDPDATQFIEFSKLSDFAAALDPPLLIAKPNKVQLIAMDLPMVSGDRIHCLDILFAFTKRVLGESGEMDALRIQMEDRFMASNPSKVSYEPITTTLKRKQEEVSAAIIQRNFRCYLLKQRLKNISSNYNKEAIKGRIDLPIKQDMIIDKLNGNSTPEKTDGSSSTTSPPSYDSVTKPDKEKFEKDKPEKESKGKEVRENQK

IC50, < 1000 nM:
CCCC(=O)Nc1cc(C(=O)NCc2cccc(OCC(F)(F)F)n2)ccn1 [Example 469, 2-butyramido-N-((6-(2,2,2-trifluoroethoxy)pyridin-2-yl)methyl)isonicotinamide]
CC(=O)Nc1cc(C(=O)NCc2cccc(OC(F)(F)F)c2F)ccn1 [Example 746, 2-acetamido-N-(2-fluoro-3-(trifluoromethoxy)benzyl)isonicotinamide]
Cc1cc(C(=O)NCc2cnc(OCC(F)(F)F)cc2C)cc(NC(=O)CC2CC2)n1 [Example 958, 2-(2-cyclopropylacetamido)-6-methyl-N-((4-methyl-6-(2,2,2-trifluoroethoxy)pyridin-3-yl)methyl)isonicotinamide]
CC(=O)Nc1cc(C(=O)NCc2ccc(OC(F)(F)F)c(Cl)c2)ccn1 [Example 967, 2-acetamido-N-(3-chloro-4-(trifluoromethoxy)benzyl)isonicotinamide]
CC(=O)Nc1cc(C(=O)NCc2cc(C(F)(F)F)ccc2F)cc(C)n1 [Example 574, 2-acetamido-N-(2-fluoro-5-(trifluoromethyl)benzyl)-6-methylisonicotinamide]
Cc1cc(CNC(=O)c2ccnc(NC(=O)C3CC3)c2)cnc1OCC(F)F [Example 739, 2-(cyclopropanecarboxamido)-N-((6-(2,2-difluoroethoxy)-5-methylpyridin-3-yl)methyl)isonicotinamide]
CC(NC(=O)c1ccnc(NC(=O)C2CC2)n1)c1ccc(OCC(F)(F)C(F)(F)F)nc1 (single isomer, unassigned) [Example 694, 2-(cyclopropanecarboxamido)-N-(1-(6-(2,2,3,3,3-pentafluoropropoxy)pyridin-3-yl)ethyl)pyrimidine-4-carboxamide]
CCNC(=O)c1cc(C(=O)NCc2ccc(OCC(F)(F)F)nc2OC)cc(C)n1 [Example 508, N2-ethyl-N4-((2-methoxy-6-(2,2,2-trifluoroethoxy)pyridin-3-yl)methyl)-6-methylpyridine-2,4-dicarboxamide]
O=C(NCc1ccc(COCC(F)(F)F)cc1)c1ccnc(NC(=O)C2CC2)c1 [Example 665, 2-(cyclopropanecarboxamido)-N-(4-((2,2,2-trifluoroethoxy)methyl)benzyl)isonicotinamide]
CCC(=O)Nc1cc(C(=O)NCc2cnc(OCC(F)(F)F)c(CC)c2)ccn1 [Example 710, N-((5-ethyl-6-(2,2,2-trifluoroethoxy)pyridin-3-yl)methyl)-2-propionamidoisonicotinamide]
Cc1cc(C(=O)NCc2cccc(OCC(F)(F)F)n2)cc(NC(=O)C(C)C)n1 [Example 496, 2-isobutyramido-6-methyl-N-((6-(2,2,2-trifluoroethoxy)pyridin-2-yl)methyl)isonicotinamide]
Cc1ccc(OCC(F)(F)F)nc1CNC(=O)c1ccnc(NC(=O)C(C)C)c1 [Example 566, 2-isobutyramido-N-((3-methyl-6-(2,2,2-trifluoroethoxy)pyridin-2-yl)methyl)isonicotinamide]
Cc1cc(CNC(=O)c2ccnc(NC(=O)C(C)C)c2)nc(OCC(F)(F)F)c1 [Example 576, 2-isobutyramido-N-((4-methyl-6-(2,2,2-trifluoroethoxy)pyridin-2-yl)methyl)isonicotinamide]
Cc1cc(C(=O)NCc2cnc(OCC(F)(F)F)cc2C)cc(NC(=O)C(C)C)n1 [Example 516, 2-isobutyramido-6-methyl-N-((4-methyl-6-(2,2,2-trifluoroethoxy)pyridin-3-yl)methyl)isonicotinamide]
O=C(NCc1cnc(OCC(F)(F)F)c(Cl)c1)c1ccnc(NC(=O)C2CC2)c1 [Example 95, N-((5-chloro-6-(2,2,2-trifluoroethoxy)pyridin-3-yl)methyl)-2-(cyclopropanecarboxamido)isonicotinamide]
CCC(=O)Nc1cc(C(=O)NCc2cc(OC(F)(F)F)ccc2F)ccn1 [Example 607, N-(2-fluoro-5-(trifluoromethoxy)benzyl)-2-propionamidoisonicotinamide]
Cc1ccc(OCC(F)(F)F)nc1CNC(=O)c1ccnc(NC(=O)C2CC2)c1 [Example 568, 2-(cyclopropanecarboxamido)-N-((3-methyl-6-(2,2,2-trifluoroethoxy)pyridin-2-yl)methyl)isonicotinamide]
CCC(=O)Nc1cc(C(=O)NCc2cccc(OC(F)(F)F)c2F)ccn1 [Example 747, N-(2-fluoro-3-(trifluoromethoxy)benzyl)-2-propionamidoisonicotinamide]
Cc1cc(CNC(=O)c2ccnc(NC(=O)C3CC3)n2)cc(OC(F)(F)F)c1 [Example 604, 2-(cyclopropanecarboxamido)-N-(3-methyl-5-(trifluoromethoxy)benzyl)pyrimidine-4-carboxamide]
Cc1cc(C(=O)NCc2cccc(OC(F)(F)F)c2F)cc(NC(=O)C(C)C)n1 [Example 752, N-(2-fluoro-3-(trifluoromethoxy)benzyl)-2-isobutyramido-6-methylisonicotinamide]
CCC(=O)Nc1cc(C(=O)NCc2ccc(OCC(C)(F)F)nc2)ccn1 [Example 719, N-((6-(2,2-difluoropropoxy)pyridin-3-yl)methyl)-2-propionamidoisonicotinamide]
CCC(=O)Nc1cc(C(=O)NCc2cnc(OCC(F)F)c(C)c2)cc(C)n1 [Example 740, N-((6-(2,2-difluoroethoxy)-5-methylpyridin-3-yl)methyl)-2-methyl-6-propionamidoisonicotinamide]
CCc1cc(CNC(=O)c2cc(C)nc(NC(=O)C3CC3)n2)cnc1OCC(F)(F)F [Example 718, 2-(cyclopropanecarboxamido)-N-((5-ethyl-6-(2,2,2-trifluoroethoxy)pyridin-3-yl)methyl)-6-methylpyrimidine-4-carboxamide]
Cc1cc(C(=O)NCc2cnc(OCC(F)F)c(C)c2)cc(NC(=O)C(C)C)n1 [Example 743, N-((6-(2,2-difluoroethoxy)-5-methylpyridin-3-yl)methyl)-2-isobutyramido-6-methylisonicotinamide]
CCc1cc(CNC(=O)c2ccnc(NC(=O)C3CC3)c2)cnc1OCC(F)(F)F [Example 711, 2-(cyclopropanecarboxamido)-N-((5-ethyl-6-(2,2,2-trifluoroethoxy)pyridin-3-yl)methyl)isonicotinamide]
CC(C)C(=O)Nc1cc(C(=O)NC(C)c2ccc(OCC(F)(F)C(F)(F)F)nc2)ccn1 (single isomer, unassigned) [Example 690, 2-isobutyramido-N-(1-(6-(2,2,3,3,3-pentafluoropropoxy)pyridin-3-yl)ethyl)isonicotinamide]
COc1nc(OCC(F)(F)F)ccc1CNC(=O)c1cc(C)nc(NC(=O)CC2CC2)c1 [Example 960, 2-(2-cyclopropylacetamido)-N-((2-methoxy-6-(2,2,2-trifluoroethoxy)pyridin-3-yl)methyl)-6-methylisonicotinamide]
